We go through 17 molecules from patent publication US9562035B2, “Benzamide derivative useful as FASN inhibitors for the treatment of cancer” (Janssen Pharmaceutica NV, priority 2013, dated 2017).

For test [1], the target named is T1, hFASN enzyme (full length) (Homo sapiens, UniProt P49327).
T1 construct: 10 μL hFASN enzyme (full length, 300 ng, purified in house); made in house
The test is described as follows: Fatty Acid Synthase (FASN) Inhibition Scintillation Proximity Assay. The test is classed as biochemical. To be noted: for IC50: mean where tested more than once, ~ = standard error of pIC50 larger than 0.5; for inhibition at 10 µM: read-out: FASN % Effect @1E−05M. As for the experimental part:
In this assay, inhibition of FASN activity is measured using ^3H-acetyl-CoA and malonyl-CoA as substrates. ^3H-Acetyl CoA is converted to ^3H-palmitate through a series of reactions by the FASN protein, which contains 7 functional domains and carries out 7 enzymatic reactions to ultimately produce ^3H-palmitate. The assay principle is based upon the fact that ^3H-acetyl-CoA is hydrophilic and the end product, ^3H-palmitate is hydrophobic.
10 μL assay buffer (100 mM KH2PO4 pH 7.5, 1 mM DTT) (20 μL in blanks) was added to a 384-well white Opti Plate plate (Perkin Elmer). 0.9 μL test compound (at concentrations of 30 μM, 10 μM, 3 μM, 1 μM, 0.30 μM, 0.10 μM, 0.03 μM and 0.01 μM)/DMSO and 10 μL hFASN enzyme (full length, 300 ng, purified in house) or 10 μL assay buffer was added to the wells. Then 10 μL 450 μM NADPH (Sigma N7505), 18.75 μM [^3H]-acetyl-CoA (Perkin Elmer NET-290L), 150 μM malonyl-CoA (Sigma M4263) were added, mixed and incubated at room temperature for 60 minutes. The reaction was stopped by adding 20 μL Streptavidin coupled imaging beads (25 mg/ml). After incubation for 30 minutes at room temperature in the dark, the 384 well plate was centrifuged at 1500 rpm for 3 minutes and was measured after at least 24 hrs by the LEADseeker™, measuring emission using a 610±20 nm pass filter. (Bays, N. W., et al., “A simplified scintillation proximity assay for fatty acid synthase activity: development and comparison with other FAS activity assays”, J. Biomol. Screen, 2009, pp 636-642, Vol. 14(6).)
(§1) Raw data generated by the instrument were normalized to % Controlmin values, which were calculated as: % Controlmin=100*(x−mLC)/(mHC−mLC)
(§2) where mLC and mHC were the means of the low control wells and high control wells on the plate, after manual exclusion of outliers. A plot of Controlmin versus test compound concentration was fitted to a 4-parameter logistic curve using a non-linear least squares regression method. From the plot, an IC50 (concentration at which 50% inhibition is achieved) was calculated. pIC50 values were calculated as −log(IC50), when IC50 is expressed in molar units.
A general note: Scintillation proximity formats need no separation of bound from free tracer.

Test [2] concerns the target T2, FASN Keto-reductase Domain (Homo sapiens, UniProt P49327).
T2 construct: 10 μL hFASN enzyme (full length, 300 ng, purified in house) and 360 μM NADPH; made in house
Briefly: Fatty Acid Synthase Keto-Reductase Domain (FASN KR) Inhibition. The test is classed as biochemical. To be noted: mean where tested more than once; read-out: FASN K-R Domain pIC50 (converted). As for the experimental part: 10 μL assay buffer (100 mM KH2PO4 pH 7.5) was added to a 384-well clear plate (costar 3702). 0.3 μL compound (at concentrations of 30 μM, 10 μM, 3 μM, 1 μM, 0.30 μM, 0.10 μM, 0.03 μM and 0.01 μM)/DMSO, 10 μL hFASN enzyme (full length, 300 ng, purified in house) and 360 μM NADPH (except in blank) were then added. Then, 10 μL 180 mM ethyl acetoacetate (Aldrich 688983) was added, mixed and immediately thereafter, the absorbance at 340 nm (T1) by Multiscan (Labsystems) was measured. After 20 minutes incubation at room temperature the plate was measured again (T2).
The decrease in absorbance was calculated as (Absorbance before incubation T1)−(Absorbance following incubation T2).
as §1, §2

Bounds are passed on as bounds.

T1 sequence (P49327 whole entry): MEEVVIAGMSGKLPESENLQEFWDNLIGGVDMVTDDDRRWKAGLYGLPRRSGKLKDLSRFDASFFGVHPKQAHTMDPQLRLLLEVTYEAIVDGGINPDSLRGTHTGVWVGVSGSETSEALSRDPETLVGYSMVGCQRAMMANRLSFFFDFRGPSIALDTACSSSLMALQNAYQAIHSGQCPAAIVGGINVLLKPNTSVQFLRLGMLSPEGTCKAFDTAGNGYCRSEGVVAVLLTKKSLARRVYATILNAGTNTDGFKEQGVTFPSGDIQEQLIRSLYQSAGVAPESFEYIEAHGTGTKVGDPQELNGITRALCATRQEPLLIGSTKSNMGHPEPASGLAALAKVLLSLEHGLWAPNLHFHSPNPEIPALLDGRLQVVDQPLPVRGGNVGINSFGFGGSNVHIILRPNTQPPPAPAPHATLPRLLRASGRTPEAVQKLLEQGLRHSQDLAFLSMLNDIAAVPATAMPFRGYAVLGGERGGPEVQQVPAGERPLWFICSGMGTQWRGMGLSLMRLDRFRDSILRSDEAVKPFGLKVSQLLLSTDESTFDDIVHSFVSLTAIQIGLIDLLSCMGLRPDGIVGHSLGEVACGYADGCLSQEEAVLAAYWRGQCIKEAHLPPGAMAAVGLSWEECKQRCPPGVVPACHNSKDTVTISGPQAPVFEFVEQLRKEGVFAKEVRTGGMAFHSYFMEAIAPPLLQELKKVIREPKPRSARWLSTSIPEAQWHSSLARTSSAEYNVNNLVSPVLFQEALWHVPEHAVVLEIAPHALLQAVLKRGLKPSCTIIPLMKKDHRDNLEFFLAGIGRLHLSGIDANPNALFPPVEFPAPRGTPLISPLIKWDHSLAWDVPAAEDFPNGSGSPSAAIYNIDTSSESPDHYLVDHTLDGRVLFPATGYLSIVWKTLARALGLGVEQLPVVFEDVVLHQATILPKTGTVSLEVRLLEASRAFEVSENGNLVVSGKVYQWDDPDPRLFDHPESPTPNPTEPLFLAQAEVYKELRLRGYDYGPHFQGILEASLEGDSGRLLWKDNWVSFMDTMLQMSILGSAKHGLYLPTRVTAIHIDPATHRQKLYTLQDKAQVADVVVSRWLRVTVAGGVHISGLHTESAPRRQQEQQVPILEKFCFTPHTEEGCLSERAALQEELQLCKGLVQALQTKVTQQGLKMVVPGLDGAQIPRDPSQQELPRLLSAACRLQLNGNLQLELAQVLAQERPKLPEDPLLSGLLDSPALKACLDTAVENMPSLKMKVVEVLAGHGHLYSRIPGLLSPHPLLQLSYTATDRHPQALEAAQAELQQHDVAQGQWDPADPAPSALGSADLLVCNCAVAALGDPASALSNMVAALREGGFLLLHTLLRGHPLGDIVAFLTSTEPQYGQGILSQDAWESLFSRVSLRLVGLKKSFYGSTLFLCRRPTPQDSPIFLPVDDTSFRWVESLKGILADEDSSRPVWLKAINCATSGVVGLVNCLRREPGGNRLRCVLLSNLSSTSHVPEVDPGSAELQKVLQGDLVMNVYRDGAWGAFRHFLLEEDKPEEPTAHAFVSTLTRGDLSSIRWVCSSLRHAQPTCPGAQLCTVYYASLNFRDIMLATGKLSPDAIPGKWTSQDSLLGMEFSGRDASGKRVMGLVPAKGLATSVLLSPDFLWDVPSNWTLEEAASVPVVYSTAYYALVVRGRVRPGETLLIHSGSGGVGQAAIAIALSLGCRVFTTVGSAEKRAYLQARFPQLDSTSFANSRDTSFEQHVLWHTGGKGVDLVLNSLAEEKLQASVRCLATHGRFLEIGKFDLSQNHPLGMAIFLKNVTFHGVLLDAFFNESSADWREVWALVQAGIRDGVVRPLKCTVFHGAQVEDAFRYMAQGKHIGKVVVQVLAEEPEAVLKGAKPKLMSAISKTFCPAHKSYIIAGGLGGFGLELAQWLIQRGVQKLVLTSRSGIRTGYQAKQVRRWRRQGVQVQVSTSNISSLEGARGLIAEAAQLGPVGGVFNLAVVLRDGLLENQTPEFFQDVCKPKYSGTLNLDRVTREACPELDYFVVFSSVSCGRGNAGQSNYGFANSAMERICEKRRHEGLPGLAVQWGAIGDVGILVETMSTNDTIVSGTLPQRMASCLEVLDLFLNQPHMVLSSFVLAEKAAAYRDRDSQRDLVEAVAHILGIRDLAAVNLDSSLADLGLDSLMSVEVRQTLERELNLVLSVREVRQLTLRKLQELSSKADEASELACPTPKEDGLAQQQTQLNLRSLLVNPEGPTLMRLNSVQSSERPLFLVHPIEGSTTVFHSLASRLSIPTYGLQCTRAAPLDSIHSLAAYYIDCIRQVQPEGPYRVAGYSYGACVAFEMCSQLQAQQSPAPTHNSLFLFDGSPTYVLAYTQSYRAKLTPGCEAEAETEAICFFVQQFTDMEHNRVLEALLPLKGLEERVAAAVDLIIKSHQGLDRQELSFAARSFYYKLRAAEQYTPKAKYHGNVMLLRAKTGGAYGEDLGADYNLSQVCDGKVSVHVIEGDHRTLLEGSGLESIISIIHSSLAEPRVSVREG
T2 sequence (P49327 whole entry, the tested form may be a part): as the sequence (P49327 whole entry) above

In the case of `Cc1ccc(C(=O)N2CC(O)(c3ccc(-c4ccnn4C)cc3)C2)cc1NC(=O)c1ccc(Cl)nc1` [Compound 107, 6-chloro-N-(5-(3-hydroxy-3-(4-(1-methyl-1H-pyrazol-5-yl)phenyl)azetidine-1-carbonyl)-2-methylphenyl)nicotinamide], in test [1], the IC50 is over 10 µM and the inhibition at 10 µM came out at 41%.
For `Cc1ccc(C(=O)N2CCC(c3ccc4ncsc4c3)CC2)cc1NC(=O)c1ccc(NC(C)C)nc1` [Compound 46, N-(5-(4-(benzo[d]thiazol-6-yl)piperidine-1-carbonyl)-2-methylphenyl)-6-(isopropylamino)nicotinamide], in test [1], the IC50 is 2.29 µM and the inhibition at 10 µM turned out to be 74%.
Taken in the same sequence, the figures for `CN(C(=O)C1CC1)c1ccc(C(=O)N2CCC(c3ccc(-c4cnn(C)c4)cc3)CC2)cc1NC(=O)C1CC1` [Compound 277, N-(2-(cyclopropanecarboxamido)-4-(4-(4-(1-methyl-1H-pyrazol-4-yl)phenyl)piperidine-1-carbonyl)phenyl)-N-methylcyclopropanecarboxamide] were 4.47 µM and 62%.
With `Cc1ccc(C(=O)N2CCC(c3ccc4nncn4c3)CC2)cc1NC(=O)c1ccc(NC(C)C)nc1` [Compound 20, N-(5-(4-([1,2,4]triazolo[4,3-a]pyridin-6-yl)piperidine-1-carbonyl)-2-methylphenyl)-6-(isopropylamino)nicotinamide], in test [1], the IC50 was about 30.2 µM and the inhibition at 10 µM turned out to be 30%.
In the case of `Cc1ccc(C(=O)N2CCC(c3ccc(-c4cnn(C)c4)cc3)CC2)cc1NC(=O)c1nccn1C` [Compound 227, 1-methyl-N-(2-methyl-5-(4-(4-(1-methyl-1H-pyrazol-4-yl)phenyl)piperidine-1-carbonyl)phenyl)-1H-imidazole-2-carboxamide], in test [1], the IC50 was 2.45 µM and the inhibition at 10 µM amounted to 63%.
For the molecule `Cc1ccc(C(=O)N2CC(c3ccc(-c4cnn(C)c4)cc3)C2)cc1NC(=O)C1CCCC1` [Compound 226, N-(2-methyl-5-(3-(4-(1-methyl-1H-pyrazol-4-yl)phenyl)azetidine-1-carbonyl)phenyl)cyclopentanecarboxamide], in test [1], the IC50 was over 10 µM and the inhibition at 10 µM was 17%.
For the molecule `Cc1ccc(C(=O)N2CCC(c3ccc(-c4cnn(C)c4)cc3)CC2)cc1NC(=O)c1ccc(N2CCN[C@H](CO)C2)nc1` [Compound 164, (3S)-6-(3-(hydroxymethyl)piperazin-1-yl)-N-(2-methyl-5-(4-(4-(1-methyl-1H-pyrazol-4-yl)phenyl)piperidine-1-carbonyl)phenyl)nicotinamide], in test [1], the IC50 was 0.0209 µM and the inhibition at 10 µM was 110%. Also, the IC50 in test [2] was 0.0417 µM.
In test [1], `COCCN(C(=O)C1CC1)c1ccc(C(=O)N2CCC(c3ccc(-c4cnn(C)c4)cc3)CC2)cc1NC(=O)C1CC1` [Compound 291, N-(2-(cyclopropanecarboxamido)-4-(4-(4-(1-methyl-1H-pyrazol-4-yl)phenyl)piperidine-1-carbonyl)phenyl)-N-(2-methoxyethyl)cyclopropanecarboxamide] gave an IC50 of over 10 µM.
Regarding `Cc1ccc(C(=O)N2CCC(c3ccc4nncn4c3)CC2)cc1NC(=O)c1ccc(Cl)nc1` [Compound 18, N-(5-(4-([1,2,4]triazolo[4,3-a]pyridin-6-yl)piperidine-1-carbonyl)-2-methylphenyl)-6-chloronicotinamide], in test [1], the IC50 was over 30.2 µM and the inhibition at 10 µM is 2%. The IC50 in test [2] was over 30.2 µM.
In the case of `Cc1ccc(C(=O)N2CCC(c3ccc4c(c3)C(C)N(C)C4=O)CC2)cc1NC(=O)c1ccc(Cl)nc1` (stereo not shown) [Compound 21, 6-chloro-N-(5-(4-(2,3-dimethyl-1-oxoisoindolin-5-yl)piperidine-1-carbonyl)-2-methylphenyl)nicotinamide], in test [1], the IC50 was 27.5 µM and the inhibition at 10 µM was 22%. Further, the IC50 in test [2] was 13.2 µM.
For `Cc1ccc(C(=O)N2CCC(c3ccc4nccn4c3)CC2)cc1NC(=O)c1ccc(NC(C)C)nc1` [Compound 17, N-(5-(4-(imidazo[1,2-a]pyridin-6-yl)piperidine-1-carbonyl)-2-methylphenyl)-6-(isopropylamino)nicotinamide], in test [1], the IC50 was about 12.9 µM and the inhibition at 10 µM is 51%. Moreover, the IC50 in test [2] was 8.13 µM.
As to `Cc1ccc(C(=O)N2CCC(c3ccc(-c4cnn(C)c4)cc3)CC2)cc1NC(=O)c1nc(C(C)(C)C)cs1` [Compound 229, 4-(tert-butyl)-N-(2-methyl-5-(4-(4-(1-methyl-1H-pyrazol-4-yl)phenyl)piperidine-1-carbonyl)phenyl)thiazole-2-carboxamide], in test [1], the IC50 was 4.07 µM and the inhibition at 10 µM is 61%.
`Cc1ccc(C(=O)N2CCC(c3ccc4c(c3)CN(C)C4=O)CC2)cc1NC(=O)c1ccc(NC(C)C)nc1` [Compound 19, 6-(isopropylamino)-N-(2-methyl-5-(4-(2-methyl-1-oxoisoindolin-5-yl)piperidine-1-carbonyl)phenyl)nicotinamide]: the IC50 was 6.61 µM in test [1] and 5.5 µM in test [2]. In addition, in test [1], the inhibition at 10 µM is 50%.
Consider `Cc1ccc(C(=O)N2CCC(c3ccc4ncsc4c3)CC2)cc1NC(=O)c1ccc(Cl)nc1` [Compound 47, N-(5-(4-(benzo[d]thiazol-6-yl)piperidine-1-carbonyl)-2-methylphenyl)-6-chloronicotinamide], for which, in test [1], the IC50 is about 7.76 µM and the inhibition at 10 µM is 60%.
Turning to `Cc1ccc(C(=O)N2CCC(c3ccc4c(c3)C(C)N(C)C4=O)CC2)cc1NC(=O)c1ccc(NC(C)C)nc1` (stereo not shown) [Compound 22, N-(5-(4-(2,3-dimethyl-1-oxoisoindolin-5-yl)piperidine-1-carbonyl)-2-methylphenyl)-6-(isopropylamino)nicotinamide], in test [1], the IC50 is 4.9 µM and the inhibition at 10 µM came to 60%. The IC50 in test [2] was 7.94 µM.
As to `Cc1ccc(C(=O)N2CCC(c3ccc4nccn4c3)CC2)cc1NC(=O)c1ccc(Cl)nc1` [Compound 14, 6-chloro-N-(5-(4-(imidazo[1,2-a]pyridin-6-yl)piperidine-1-carbonyl)-2-methylphenyl)nicotinamide], the IC50 is over 30.2 µM in test [1] and 17 µM in test [2]. Moreover, in test [1], the inhibition at 10 µM was determined as 30%.
Consider `Cc1ccc(-c2ccc(C3CCN(C(=O)c4ccc(C)c(NC(=O)c5ccc(NC(C)C)nc5)c4)CC3)cc2)cc1` [Compound 234, 6-(isopropylamino)-N-(2-methyl-5-(4-(4′-methyl-[1,1′-biphenyl]-4-yl)piperidine-1-carbonyl)phenyl)nicotinamide], for which, in test [1], the IC50 is about 2 µM and the inhibition at 10 µM was determined as 63%.
